Measured values taken from patent US20140121168A1, “ANTAGONISTS OF TRPV1 RECEPTOR” (ANTAGONISTS OF TRPV1 RECEPTOR, priority 2011, published 2014).
Where a SMILES comes first, the peptide text is derived from it. Bridges are numbered along the chain shown (N, C = ends). [ ]: non-standard residue; d: D form. d(aThr) = C[C@@H](O)[C@@H](N)C(=O)O; Dhb = C/C=C(\N)C(=O)O

Molecular target: TRPV1 (Homo sapiens, UniProt Q8NER1)
Assay: TRPV1 assays, inhibition of capsaicin response (cell line not stated for the IC50 values)

TRPV1, sequence (Q8NER1 whole entry): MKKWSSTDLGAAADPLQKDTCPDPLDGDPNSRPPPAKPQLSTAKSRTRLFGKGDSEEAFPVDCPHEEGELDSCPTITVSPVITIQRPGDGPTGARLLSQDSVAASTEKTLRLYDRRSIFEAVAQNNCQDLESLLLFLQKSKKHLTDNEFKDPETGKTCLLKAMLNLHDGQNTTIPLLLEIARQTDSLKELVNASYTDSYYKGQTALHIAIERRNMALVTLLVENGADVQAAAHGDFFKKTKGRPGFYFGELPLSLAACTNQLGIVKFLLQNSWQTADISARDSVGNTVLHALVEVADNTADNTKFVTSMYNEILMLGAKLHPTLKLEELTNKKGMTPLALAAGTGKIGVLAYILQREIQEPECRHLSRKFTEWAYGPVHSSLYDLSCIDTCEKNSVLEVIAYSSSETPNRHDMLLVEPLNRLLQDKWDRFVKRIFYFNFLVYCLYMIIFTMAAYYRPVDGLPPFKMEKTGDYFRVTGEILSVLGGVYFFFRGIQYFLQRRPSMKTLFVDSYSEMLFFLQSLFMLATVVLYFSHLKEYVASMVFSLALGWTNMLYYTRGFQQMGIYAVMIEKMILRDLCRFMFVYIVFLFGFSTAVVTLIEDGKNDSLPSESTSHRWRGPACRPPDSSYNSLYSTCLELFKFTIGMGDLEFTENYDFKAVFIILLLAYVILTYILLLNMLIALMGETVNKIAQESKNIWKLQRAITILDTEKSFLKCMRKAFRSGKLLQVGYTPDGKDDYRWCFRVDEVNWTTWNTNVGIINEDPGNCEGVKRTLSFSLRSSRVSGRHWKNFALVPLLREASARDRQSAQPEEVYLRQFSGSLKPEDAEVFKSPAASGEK

Row | Compound | inhibitory activity on TRPV1 (in words)
1 | C/C=C1\NC(=O)[C@H](C)NC(=O)[C@H](C(C)C)NC(=O)[C@H](NC(=O)[C@H](Cc2ccccc2)NC(=O)[C@@H](CC(C)C)NC(=O)[C@@H](Cc2ccccc2)NC(C)=O)[C@@H](C)OC1=O [compound 1, A-3302-B] (Ac-[dF][dL]F[d(aThr)]VA[Dhb]; ester 4-C) | substantial inhibitory activity
2 | Nobilamide E [compound 8] | inactive
